Test results reported in patent publication US20110207742A1, “METHOD FOR REDUCTION, STABILIZATION AND PREVENTION OF RUPTURE OF LIPID RICH PLAQUE” (KOWA CO., LTD., priority 2004, published 2011).

Assays:
Assay type in all cases: in vivo, rabbit
WHHL rabbits [1] = assay: Ratio of aortic plaque area in WHHL rabbits; settings: Pitavastatin 0.5 mg/kg, compound 1 10 mg/kg; for Ratio of aortic plaque area (%) Mean ± S.E: plaque area/aortic intimal surface area×100, 16 weeks via drinking water, control 49.6 ± 5.0; for Inhibition ratio (%) of ratio of aortic plaque area: vs control group, 16 weeks via drinking water
Source text: (§1) A WHHL rabbit was discovered by Dr. Yoshio Watanabe, a former medical professor at Kobe University in 1973, and was established as a strain. The WHHL rabbit is a model animal which naturally develops hypercholesterolemia and arteriosclerosis. Using such WHHL rabbits, the effect of the drugs on plaque stabilization was examined according to the following method.
(§2) Male homozygous WHHL rabbits (Kitayama Labes, Nagano) were purchased from Oriental Yeast (Tokyo), and WHHL rabbits aged about 4 months were used for experiment. For control, single administration of Pitavastatin, single administration of the compound 1, combined administration of Pitavastatin and the compound 1, 8 WHHL rabbits, 7 WHHL rabbits, 3 WHHL rabbits, and 4 WHHL rabbits were used, respectively.
(§3) Pitavastatin was synthesized by Nissan Chemical Industries, Ltd. (Tokyo) and was supplied therefrom. In the case of administration of Pitavastatin, 0.5 mg/kg of Pitavastatin dissolved in 400 mL (which is an average amount of drinking water per rabbit a day) of drinking water was administered to each rabbit. In the case of administration of the compound 1, 10 mg/kg (in terms of free base) of the compound 1 dissolved in 400 mL (which is an average amount of drinking water per rabbit a day) of ion-exchange water was administered to each rabbit. One or both of the drugs were administered for 16 weeks.
The rabbit was perfused at a perfusion pressure of 120 mmH2O with physiological saline injected from a cardiac apex for about 5 minutes. Further, the rabbit was perfused with 4% paraformaldehyde in the same manner as described above to fix an aorta. The aorta was excised from the rabbit, and fat and connective tissue attached to the aorta were separated. An incision was made along the lesser curvature of the aorta, and then the greater curvature of the aorta was partially incised. The aorta was sandwiched between plastic films in such a manner that the intimal side of the aorta was observed, and a macro image was taken (CAMEDIA E-10, manufactured by Olympus Corporation). Based on the image, plaque area (that is, the area of lipid deposition) and aortic intimal surface area were analyzed by an image analyzer (Win Roof Ver. 5.0, manufactured by MITANI CORPORATION). The ratio of aortic plaque area of each of the rabbits was obtained using the formula:
plaque area/aortic intimal surface area×100
(§4) The results of TC and the ratio of aortic plaque area were expressed as average±standard error. Significance test between the control group and the drug administration groups were detected using Dunnett's test. Histopathological findings were evaluated in terms of the percentage of plaque area occupied by macrophages and the percentage of plaque area occupied by collagen.

WHHL rabbits [2] = assay: Histopathology of Azan-stained aortic arch, image analysis of plaque area occupied by macrophages and collagen; settings: Azan stain, 16 weeks, Pitavastatin 0.5 mg/kg, compound 1 10 mg/kg; for percentage of plaque area occupied by collagen: control 26.5%; for percentage of plaque area occupied by macrophages: control 29.5%
Source text: In addition to the evaluation of TC, an aorta excised from each WHHL rabbit was histopathologically examined After the completion of measurement, an aortic arch of each WHHL rabbit was immersion-fixed with 4% paraformaldehyde overnight, and was then embedded in paraffin in the usual manner to prepare a paraffin section. The paraffin section was stained with Azan stain. […] FIGS. 1A to 1D are microscope photographs of Azan-stained aortic arches of the WHHL rabbits, and FIGS. 2A and 2B are graphs which show the analysis results of the images shown in FIGS. 1A to 1D. In this regard, it is to be noted that FIG. 1A is a microscope photograph of a control group to which no drug was administered, FIG. 1B is a microscope photograph of a group to which Pitavastatin was administered in single, FIG. 1C is a microscope photograph of a group to which the compound 1 was administered in single, and FIG. 1D is a microscope photograph of a group to which Pitavastatin and the compound 1 were administered in combination.
as §1, §2
as §3, with “weeks. […]” for “weeks.”
as §4

WHHL rabbits [3] = assay: Total plasma cholesterol (TC) level in WHHL rabbits after 16 weeks of administration; settings: Pitavastatin 0.5 mg/kg, compound 1 10 mg/kg; for Total plasma cholesterol (mg/dL) Mean ± S.E: male homozygous WHHL rabbits, via drinking water for 16 weeks, control 646.8 ± 27.1
Method: For the investigation of the effect of these drugs on total plasma cholesterol (TC), one or both of the compound 1 (10 mg/kg) and Pitavastatin (0.5 mg/kg) were administered to WHHL rabbits via drinking water for 16 weeks to measure the TC of each of the WHHL rabbits.
as §1, §2, §3
In the next morning after last administration, each of the rabbits was placed in a restraining box, and the ear of the rabbit was sterilized with an alcohol. Then, about 1 mL of blood was collected from an ear vein with a syringe containing EDTA (final concentration, 0.1%). The collected blood was centrifuged at 4,200×g for 5 minutes to fractionate plasma. TC was measured using cholesterol E-test Wako (by a cholesterol oxidaseΩDAOS method).
as §4

| SMILES | Ratio of aortic plaque area (%) Mean ± S.E (WHHL rabbits [1]) [%] | Inhibition ratio (%) of ratio of aortic plaque area (WHHL rabbits [1]) [%] | percentage of plaque area occupied by collagen (WHHL rabbits [2]) [%] | percentage of plaque area occupied by macrophages (WHHL rabbits [2]) [%] | Total plasma cholesterol (mg/dL) Mean ± S.E (WHHL rabbits [3]) [mg/dL] | Inhibition ratio (%) of total plasma cholesterol (WHHL rabbits [3]; vs control group, WHHL rabbits, 16 weeks via drinking water) [%] | effect on TC (in words) (WHHL rabbits [3]; WHHL rabbits, 16 weeks via drinking water) |
| --- | --- | --- | --- | --- | --- | --- | --- |
| O=C(O)C[C@H](O)C[C@H](O)/C=C/c1c(C2CC2)nc2ccccc2c1-c1ccc(F)cc1 [Pitavastatin] | 47.1 ± 6.6 | 5.0 | 34.7 | 17.1 | 524.2 ± 35.6 | 19 | – |
| CSc1cc(C)nc(SC)c1NC(=O)CN1CCN(CCSc2nc3ccccc3[nH]2)CC1 [Compound 1, 2-[4-[2-(benzimidazole-2-ylthio)ethyl]piperazin-1-yl]-N-[2,4-bis(methylthio)-6-methyl-3-pyridyl]acetamide] | 43.7 ± 4.1 | 11.9 | 44.8 | 14.9 | 648.3 ± 82.2 | – | no effect on TC |
